Data reported in patent US20240400579A1, “SPIROCYCLIC MODULATORS OF CHOLESTEROL BIOSYNTHESIS AND THEIR USE FOR PROMOTING REMYELINATION” (GENENTECH, INC., priority 2021, published 2024).

Legend:
[1] = tested on: zymostenol accumulation in EpiSC-derived OPCs (EBP); test: GC/MS-based sterol profiling, zymostenol accumulation; assay type: cell-based, mouse; conditions: Mus musculus, 24 h, 8 doses from 0.15 nM to 333 nM, read-out: mZymo GCMS EC50
Experimental: (§1) To assess effects of treatments on OPCs, all treatments were assayed in two or more independent platings of epiblast stem cell-derived OPCs (EpiSC). EpiSC-derived OPCs were obtained using in vitro differentiation protocols and culture conditions described previously (Najm et al, 2011, Nature Methods). OPCs were expanded and frozen down in aliquots. OPCs were thawed into growth conditions for at least one passage before use in further assays.
Sterols were monitored using a modified Folch wash protocol (Hubler et al, 2018, Nature). EpiSC-derived OPCs were plated at 100,000 cells per well in PO— and laminin-coated 96-well plates in N2B27 media without growth factors. After 24 hours, cells were rinsed with saline and plates were frozen. Cholesterol-d7 standard was then added to each well before drying under nitrogen stream and derivatization with 55 μl of bis(trimethylsilyl) trifluoroacetamide. After derivatization, 2 μl were analyzed by gas chromatography/mass spectrometry using an Agilent 5973 Network Mass Selective Detector equipped with a 6890 gas chromatograph system and a HP-5MS capillary column (30 m x 0.25 mm×[…]). Samples were analyzed in full scan mode using electron impact ionization; ion fragment peaks were integrated to calculate sterol abundance, and quantitation was relative to cholesterol-d7. The following ion fragments were used to quantitate each metabolite: cholesterol-d7 (465), FF-Mas (482), cholesterol (368), zymostenol (458), zymosterol (456), Desmosterol (456, 343), 7-dehydrocholesterol (456, 325), lanosterol (393), lathosterol (458), 14-dehydrozymostenol (456, 351). […] All standards were obtained from Avanti Polar Lipids unless otherwise indicated. Calibration curves were generated by injecting varying concentrations of sterol standards and maintaining a fixed amount of cholesterol-D7. For normalized zymostenol accumulation results, the total amount of zymostenol measured after drug treatment was divided by the total amount of zymostenol accumulated after 24 hr treatment with 100 nM positive control reference.

[2] = biological target: human emopamil binding protein and human 7-dehydrocholesterol reductase co-expressing cell membrane (Homo sapiens (Human), UniProt Q15125); test: hEBP-DHCR7 radioligand filtration binding assay with [3H]-Compound 118A*; conditions: radioligand [3H]-Compound 118A*; HEK293 membrane co-expressing hEBP and DHCR7
Experimental: Membrane Preparation: human emopamil binding protein and human 7-dehydrocholesterol reductase co-expressing cells were generated by transient transfecting host human embryonic kidney (HEK) 293 cells with 2 DNA constructs containing each protein's coding sequence. Cells were suspension cultured at 37° C. with 5% CO2 in […] 293 Expression Medium (Thermofisher). Whole cell membrane was prepared by harvesting the cell pellet, adding cold membrane buffer (50 mM Tris, pH7.5, 1× Roche COMPLETE EDTA-free protease inhibitor cocktail) 10 times volume of the cell pellets weight, lysing cell pellet on ice by using Dounce homogenizer, spinning at 200 g 4° C. for 15 min, collecting supernatant and spinning again at 25000 g 4° C. for 50 min, transferring pellet to Dounce homogenizer, re-suspending pellet by homogenizing in membrane buffer on ice to reach ˜25 mg/mL, then keeping whole cell membrane aliquots at −80° C.
Compounds were prepared in a 96-well U bottom plate using an Echo550 machine and 10 mM compound DMSO stock solution, followed by an 8-dose 5-fold serial dilutions protocol with final testing compound concentration ranging from 0.06 to 5000 nM, with DMSO back fill to 100 nL/well and n=2. […] The UniFilter-96 GF/B plates were pre-treated by adding 50 μl/well of 0.3% (v/v) PEI to UniFilter-96 GF/B plates. The plates were sealed and incubated at 4° C. for 3 hrs. Then, the plates were washed with ice-cold assay buffer 3 times. The radioligand binding assay was prepared by adding assay buffer diluted hEBP-DHCR7 membrane at 66.7 μg/ml x 150 μl/well into the 96-well compound plate to reach 10 μg membrane per well. Then, the assay buffer diluted [3H]-Compound 118A* was added at 25 nM×50 μl/well. Following this, the plate was centrifuged at 1000 rpm for 30 secs. The plate was then sealed and agitated at 600 rpm at 22° C. for 5 min, and then incubated at 22° C. for 3 hrs. The incubation was stopped by transferring the binding solution to the pre-treated UniFilter-96 GF/B plate, vacuum filtrated, and then washed four times with ice-cold assay buffer. Following this, the plates were dried at 37° C. for 45 min. The plates were then sealed at the bottom. 40 μl/well of scintillation cocktail was added to the plates. A MicroBeta2 microplate counter was then used to read the plate and analyze the data. For reference and test compounds, the results are expressed as % Inhibition, using the normalization equation: N=100-100×(U−C2)/(C1−C2), where U is the unknown value, C1 is the average of high controls, and C2 is the average value of low controls. The IC50 was determined by fitting percentage of inhibition as a function of compound concentrations with Hill equation using XLfit. Results are expressed as hEBP-DHCR7 Ki (uM) in Table 4. Ki was calculated as described above.

[3] = tested on: EpiSC-derived OPCs; test: In vitro phenotypic screening of OPCs, MBP high-content imaging; assay type: cell-based, mouse; conditions: Mus musculus, 72 h, percentage of MBP+ oligodendrocytes; 3 days; 0.5 nM to 1000 nM; read-out: mOPC EC50
Experimental: as §1
EpiSC-derived OPCs were grown and expanded in poly-L-ornithine (PO) and laminin-coated flasks in N2B27 media (DMEM/F12 (Gibco), N2-MAX (R&D Systems), B-27 (ThermoFisher), and GlutaMax (Gibco)) supplemented with FGF2 ([…], R&D systems, 233-FB-025) and PDGF-AA ([…], R&D systems, 233-AA-050) before harvesting for experiments. The cells were seeded onto poly-L-ornithine or poly-D-lysine coated CellCarrier Ultra plates (PerkinElmer) coated with laminin (Sigma, L2020) at a density of 150,000/cm^2 in N2B27 media without growth factors. For dose-response testing, a 1000× compound stock in dimethyl sulphoxide (DMSO) was added to assay plates, resulting in 8-point dose curves with final concentrations between 1000 nM and 0.5 nM. Positive controls and DMSO vehicle controls were included in each assay plate. Cells were incubated under standard conditions (37° C., 5% CO2) for 3 days and fixed with 4% paraformaldehyde (PFA) in phosphate buffered saline (PBS) for 20 min. Fixed plates were washed with PBS, permeabilized with 0.1% Triton X-100, and blocked with 10% donkey serum (v/v) in PBS for 40 min. Then, cells were labelled with MBP antibodies (Abcam, ab7349; 1:200) for 2 h at room temperature, washed with PBS, and stained with Alexa Fluor conjugated secondary antibodies (1:500) for 45 min. Nuclei were visualized by DAPI staining (Sigma; 1 μg/ml), followed by further PBS washes.
Cells and cell culture plates were imaged on the Operetta High Content Imaging and Analysis system (PerkinElmer). Analysis (PerkinElmer Harmony and Columbus software) began by identifying intact nuclei stained by DAPI. The peri-nuclear region of each cell was then cross-referenced with the mature myelin protein (MBP) stain to identify oligodendrocyte nuclei, and from this the percentage of oligodendrocytes was calculated. EC50 values were calculated using The Levenberg-Marquardt algorithm to fit a Hill equation to dose-response data (0.5 nM to 1000 nM).

human emopamil binding protein and human 7-dehydrocholesterol reductase co-expressing cell membrane, sequence (Q15125 whole entry): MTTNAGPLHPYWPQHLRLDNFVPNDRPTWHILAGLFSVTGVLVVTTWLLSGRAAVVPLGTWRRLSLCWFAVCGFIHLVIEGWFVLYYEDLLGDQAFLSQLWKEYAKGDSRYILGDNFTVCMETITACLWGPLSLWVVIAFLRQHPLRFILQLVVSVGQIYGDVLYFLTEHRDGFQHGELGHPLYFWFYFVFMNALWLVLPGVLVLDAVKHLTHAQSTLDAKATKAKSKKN

EC50 [1] [nM]	Ki [2] [nM]	EC50 [3] [nM]	SMILES
66	12.9	260	CCC(C)(C)c1ccc(CCC(C)N2CCC3(C2)CS(=O)(=O)C3)cc1 (racemic) [Compound 105, 6-(4-(4-(tert-Pentyl)phenyl)butan-2-yl)-2-thia-6-azaspiro[3.4]octane 2,2-dioxide]
0.93	6.54	2.5	O=S1(=O)CC2(CCN(CCOc3ccc(OC(F)(F)F)cc3)CC2)C1 [Compound 218, 7-(2-(4-(Trifluoromethoxy)phenoxy)ethyl)-2-thia-7-azaspiro[3.5]nonane 2,2-dioxide]
3.2	15.3	7.6	C[C@@H](CN1CCC2(CC1)CS(=O)(=O)C2)Oc1ccc(C(F)(F)F)cc1 (single isomer, unassigned) [227A*]
8.37	19.7	–	O=S1(=O)CC2(CCN(CCOc3ccnc([C@H]4CC[C@H](C(F)(F)F)CC4)c3)CC2)C1 [245B*, 7-(2-((2-((trans)-4-(trifluoromethyl)cyclohexyl)pyridin-4-yl)oxy)ethyl)-2-thia-7-azaspiro[3.5]nonane 2,2-dioxide]
1.4	–	1.5	C[C@H](Cc1ccc(C2(C)CC2)cc1)CN1CCC2(C1)CS(=O)(=O)C2 (single isomer, unassigned) [111B*]
31	33.6	–	C[C@@H](CN1CCC2(CC1)CS(=O)(=O)C2)Oc1ccc(C(F)(F)F)nc1 (single isomer, unassigned) [Example 207A*]
0.41	–	18	O=S1(=O)CC2(CCN(CCCc3ccc(C(F)(F)F)cc3)C2)C1 [Compound 113, 6-(3-(4-(Trifluoromethyl)phenyl)propyl)-2-thia-6-azaspiro[3.4]octane-2,2-dioxide]
10.5	16	–	O=S1(=O)CC2(CCN(CCOc3ccnc([C@H]4CC[C@@H](C(F)(F)F)CC4)c3)CC2)C1 [245A*, 7-(2-((2-((cis)-4-(Trifluoromethyl)cyclohexyl)pyridin-4-yl)oxy)ethyl)-2-thia-7-azaspiro[3.5]nonane 2,2-dioxide]
7.1	–	6.1	C[C@@H](Cc1ccc(C2(C)CC2)cc1)CN1CCC2(C1)CS(=O)(=O)C2 (single isomer, unassigned) [111C*]
0.97	11.9	–	CC(C)(CN1CCC2(CC1)CS(=O)(=O)C2)Oc1ccc(F)c(C(F)(F)F)c1 [Compound 220, 7-(2-(4-Fluoro-3-(trifluoromethyl)phenoxy)-2-methylpropyl)-2-thia-7-azaspiro[3.5]nonane 2,2-dioxide]
68.6	8.97	–	O=S1(=O)CC2(CCN(CCOc3ccc([C@H]4CC[C@@H](C(F)(F)F)CC4)nc3)CC2)C1 [247B*, 7-(2-((6-((cis)-4-(trifluoromethyl)cyclohexyl)pyridin-3-yl)oxy)ethyl)-2-thia-7-azaspiro[3.5]nonane 2,2-dioxide]
4.51	–	16.3	O=S1(=O)CC2(CCN(CCOc3cnc(C(F)(F)F)c(Cl)c3)CC2)C1 [Compound 242, 7-[2-[[5-Chloro-6-(trifluoromethyl)-3-pyridyl]oxy]ethyl]-26-thia-7-azaspiro[3.5]nonane 2,2-dioxide]
0.48	–	1.7	CC(Cc1ccc(C(F)(F)F)cc1)CN1CCC2(C1)CS(=O)(=O)C2 (stereo not shown) [Compound 104, 6-(2-Methyl-3-(4-(trifluoromethyl)phenyl)propyl)-2-thia-6-azaspiro[3.4]octane 2,2-dioxide]
23.5	10.7	–	O=S1(=O)CC2(CCN(CCOc3cnc(C4CCCCC4)c(C(F)(F)F)c3)CC2)C1 [Compound 244, 7-(2-((6-Cyclohexyl-5-(trifluoromethyl)pyridin-3-yl)oxy)ethyl)-2-thia-7-azaspiro[3.5]nonane 2,2-dioxide]
–	9.43	1.5	C[C@@H](Cc1ccc(C2CCC(F)(F)CC2)c(Cl)c1)CN1CCC2(C1)CS(=O)(=O)C2 (single isomer, unassigned) [117A*]
14.9	69	–	O=S1(=O)CC2(CCN(CCOc3ccc(-c4ccc(C(F)(F)F)nc4)nc3)CC2)C1 [Compound 241, 7-[2-[[6-[6-(Trifluoromethyl)-3-pyridyl]-3-pyridyl]oxy]ethyl]-26-thia-7-azaspiro[3.5]nonane 2,2-dioxide]
1.5	13.9	–	CC(C)(CN1CCC2(CC1)CS(=O)(=O)C2)Oc1ccc(F)c(F)c1 [Example 156, 7-(2-(3,4-Difluorophenoxy)-2-methylpropyl)-2-thia-7-azaspiro[3.5]nonane 2,2-dioxide]
0.62	–	0.72	CC(C)(Cc1ccc(C(F)(F)F)cc1)CN1CCC2(C1)CS(=O)(=O)C2 [Example 125, 6-(2,2-Dimethyl-3-(4-(trifluoromethyl)phenyl)propyl)-2-thia-6-azaspiro[3.4]octane-2,2-dioxide]
49	250	–	C[C@H](Cc1ccc(C(F)(F)F)nc1)CN1CC2(CCS(=O)(=O)CC2)C1 (single isomer, unassigned) [234A*]
6.61	53	–	Cc1nc(C(F)(F)F)ccc1OCCN1CCC2(CC1)CS(=O)(=O)C2 [Compound 243, 7-[2-[[2-Methyl-6-(trifluoromethyl)-3-pyridyl]oxy]ethyl]-26-thia-7-azaspiro[3.5]nonane 2,2-dioxide]
